The text below walks through data of the supplement of paper PMC7600603.

Assay [1] has as its system DLD1 NRF2-WT. The conditions noted are these: 72 h; CellTiter-Glo viability. An outline of the steps:
(§1)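 Isogenic DLD1 colorectal cancer cells, either NRF2 wild-type or CRISPR gain-of-function, were grown in DMEM with 10% FBS. They were exposed in 384-well plates to library compounds at 5 concentrations spanning a 10,000-fold range. After 72 h, viability was read by CellTiter-Glo on a Pherastar FS reader and normalised to vehicle wells and 100-μM positive-control wells. EC50 and drug sensitivity score (a normalised area under the curve) came from four-parameter logistic dose-response fits.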
In general terms: Cellular ATP, detected with luciferase, serves as a proxy for viable cell number.

Assay [2] concerns DLD1 NRF2-GOF. Nature of the assay: TC50 cytotoxicity; higher = less toxic. The conditions noted are these: 72 h; CellTox Green cytotoxicity. The procedure, abridged:
(§2)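 After growth in DMEM with 10% FBS, NRF2 wild-type and CRISPR-edited isogenic DLD1 cells were seeded in 384-well plates and given library compounds at 5 concentrations across a 10,000-fold range. Fluorescence from CellTox Green was taken on a Pherastar FS reader after 72 h and normalised against vehicle wells and 100-μM positive-control wells. From logistic dose-response fits of cytotoxicity came the TC50 and the drug sensitivity score, a normalised area under the curve.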

For assay [3], the system named is DLD1 NRF2-WT. Nature of the assay: TC50 cytotoxicity; higher = less toxic. The conditions noted are these: 72 h; CellTox Green cytotoxicity. The procedure, abridged: as §2
The subject of assay [4] is DLD1 NRF2-GOF. Nature of the assay: drug sensitivity score (DSS) cytotoxicity (DSS score); higher = more toxic; extreme values may be limits of the assay. The conditions noted are these: 72 h; CellTox Green cytotoxicity. The procedure, abridged:
as §2

For assay [5], the system named is DLD1 NRF2-WT. The description is as above. The conditions noted are these: 72 h; CellTox Green cytotoxicity. An outline of the steps: as §2
The test system of assay [6] is DLD1 NRF2-WT. The assay can be described thus: drug sensitivity score (DSS) viability (DSS score); higher = more sensitive; extreme values may be limits of the assay. The conditions noted are these: 72 h; CellTiter-Glo viability. An outline of the steps:
as §1

In assay [7] the test system is DLD1 NRF2-GOF. The assay is described as above. As to conditions: 72 h; CellTiter-Glo viability. The procedure, abridged: as §1

Each structure is given as a SMILES string. Bounds are passed on as bounds.

Consider `Nc1cc(F)ccc1NC(=O)c1ccc(CNC(=O)/C=C/c2cccnc2)cc1` [Chidamide], for which the EC50 viability with DLD1 NRF2-WT [1] is > 10 µM. In addition, the TC50 cytotoxicity with DLD1 NRF2-GOF [2] and in the assay on DLD1 NRF2-WT [3] was > 10 µM throughout. Moreover, the results for the drug sensitivity score with DLD1 NRF2-GOF [4], in the assay on DLD1 NRF2-WT [5] and with DLD1 NRF2-WT [6] were 0, 0 and 0.6, respectively.
Turning to `Cc1ccc(NC(=O)c2ccc(CN3CCN(C)CC3)cc2)cc1Nc1nccc(-c2cccnc2)n1` [Imatinib], the EC50 viability in the assay on DLD1 NRF2-WT [1] came to 4.5 µM. Also, the TC50 cytotoxicity in the assay with DLD1 NRF2-GOF [2] and in the assay on DLD1 NRF2-WT [3] was > 10 µM throughout. Also, the drug sensitivity score in the assay on DLD1 NRF2-GOF [4] came out at 0; in the assay with DLD1 NRF2-WT [5] it was 0; with DLD1 NRF2-WT [6] it was 1.2.
For the molecule `Cn1cncc1[C@@](N)(c1ccc(Cl)cc1)c1ccc2c(c1)c(-c1cccc(Cl)c1)cc(=O)n2C` [Tipifarnib], the EC50 viability in the assay with DLD1 NRF2-WT [1] worked out at 0.109 µM. In addition, the TC50 cytotoxicity with DLD1 NRF2-GOF [2] and in the assay with DLD1 NRF2-WT [3] was > 10 µM throughout. Moreover, the drug sensitivity score was determined as 0 with DLD1 NRF2-GOF [4], 0 in the assay on DLD1 NRF2-WT [5], 6.2 in the assay on DLD1 NRF2-GOF [7] and 5.4 in the assay on DLD1 NRF2-WT [6].
In the assay on DLD1 NRF2-WT [1], `C=CC(=O)N1CC/C(=C\c2ccc(F)c([N+](=O)[O-])c2)C(=O)/C(=C/c2ccc(F)c([N+](=O)[O-])c2)C1` [VLX1570] returned an EC50 viability of 0.0504 µM. In addition, the values for the TC50 cytotoxicity with DLD1 NRF2-GOF [2] and in the assay with DLD1 NRF2-WT [3] were 5.34 µM and 0.0677 µM, respectively. Further, the figures for the drug sensitivity score with DLD1 NRF2-GOF [4], with DLD1 NRF2-WT [5] and with DLD1 NRF2-WT [6] were 2.7, 21.9 and 27.9, respectively.
For `O=C(Nc1cccc(NC(=O)c2cccc(O)c2O)c1)c1cccc(O)c1O` [MST-312], in the assay on DLD1 NRF2-WT [1], the EC50 viability is 0.238 µM. Further, the TC50 cytotoxicity in the assay with DLD1 NRF2-GOF [2] and with DLD1 NRF2-WT [3] was > 10 µM throughout. The drug sensitivity score in the assay with DLD1 NRF2-GOF [4] was 0; in the assay with DLD1 NRF2-WT [5], 0; in the assay with DLD1 NRF2-WT [6], 10.4.
In turn, `CCS(=O)(=O)Nc1ccc(Oc2ccc(F)cc2F)c(-c2cn(C)c(=O)c3[nH]ccc23)c1` [Mivebresib] had an EC50 viability in the assay on DLD1 NRF2-WT [1] of 0.102 µM. The TC50 cytotoxicity in the assay on DLD1 NRF2-GOF [2] and in the assay with DLD1 NRF2-WT [3] was > 10 µM in each case. The drug sensitivity score in the assay with DLD1 NRF2-GOF [4] was 0; in the assay with DLD1 NRF2-WT [5], 0; with DLD1 NRF2-WT [6], 14.7.
`CC(C)(O)CC(=O)NCCn1ccc2ncnc(Nc3ccc(Oc4cccc(C(F)(F)F)c4)c(Cl)c3)c21` [TAK-285] showed an EC50 viability in the assay with DLD1 NRF2-WT [1] of 0.0595 µM. Also, the TC50 cytotoxicity in the assay on DLD1 NRF2-GOF [2] and with DLD1 NRF2-WT [3] was > 2.5 µM in each case. The drug sensitivity score in the assay on DLD1 NRF2-GOF [4] stood at 0; in the assay on DLD1 NRF2-WT [5], 0; in the assay on DLD1 NRF2-GOF [7] it was 3.7; with DLD1 NRF2-WT [6] it was 5.4.
In turn, `O=C(Nc1ccc2[nH]nc(-c3ccncc3)c2c1)[C@@H]1CCN(CC(=O)N2CCN(c3ccc(-c4ncccn4)cc3)CC2)C1` registered an EC50 viability with DLD1 NRF2-WT [1] of 0.688 µM. The TC50 cytotoxicity in the assay on DLD1 NRF2-GOF [2] and in the assay with DLD1 NRF2-WT [3] was > 10 µM in each case. Further, the drug sensitivity score with DLD1 NRF2-GOF [4] worked out at 0; in the assay with DLD1 NRF2-WT [5] it was 0; in the assay on DLD1 NRF2-WT [6] it was 6.6.
Take `Cc1nc(C(=O)NCC(=O)O)c(O)c2ccc(Oc3ccccc3)cc12` [Roxadustat]: the EC50 viability in the assay with DLD1 NRF2-WT [1] turned out to be 1.69 µM. The TC50 cytotoxicity in the assay on DLD1 NRF2-GOF [2] and in the assay on DLD1 NRF2-WT [3] was > 10 µM in each case. Moreover, the results for the drug sensitivity score in the assay on DLD1 NRF2-GOF [4], with DLD1 NRF2-WT [5] and in the assay with DLD1 NRF2-WT [6] were 0, 0 and 2.5, respectively.
In the case of `C[C@]12C=CC(=O)C=C1CC[C@@H]1[C@@H]2[C@@H](O)C[C@@]2(C)[C@H]1CC[C@]2(O)C(=O)CO` [Prednisolone], the TC50 cytotoxicity in the assay with DLD1 NRF2-GOF [2] and with DLD1 NRF2-WT [3] was > 10 µM throughout. The drug sensitivity score in the assay on DLD1 NRF2-GOF [4] was 0; in the assay with DLD1 NRF2-WT [5], 0; in the assay on DLD1 NRF2-GOF [7], 1.
For the molecule `CCCCCCCCCCCCCCCCOP(=O)([O-])OCC[N+](C)(C)C` [Miltefosine], the EC50 viability with DLD1 NRF2-WT [1] turned out to be 7.67 µM. Further, the TC50 cytotoxicity with DLD1 NRF2-GOF [2] came out at 10.4 µM; in the assay with DLD1 NRF2-WT [3], 7.4 µM. Besides, the drug sensitivity score in the assay on DLD1 NRF2-GOF [4] came out at 9.7; in the assay on DLD1 NRF2-WT [5] it was 11; with DLD1 NRF2-WT [6] it was 13.1.
